From patent US4314028A, “Fermentation process for producing tallysomycin compounds” (priority 1980, dated 1982)

How the values were obtained:
[1] = Acute toxicity, single dose LD50; assay type: in vivo, dd mice; conditions: ip, 30 days observation, copper-chelated form unless otherwise stated
Procedure: Graded doses of test compounds were administered intraperitoneally to groups of dd mice. The injection was given one time only or once daily for 9 consecutive days. Death or survival of the animals was recorded for 30 days after the last dose of test compound to calculate the single or multiple median lethal dose (LD50).

[2] = tested on: Candida albicans IAM 4888; experiment: MIC, two-fold agar dilution method; assay type: cell-based; conditions: Sabouraud agar
Procedure: (§1) The minimum inhibitory concentrations (MIC) of the semibiosynthetic tallysomycin derivatives of the present invention were determined against fungi and gram-positive, gram-negative and acid-fast bacteria by the two-fold agar dilution method. Nutrient agar was used for bacteria and Sabouraud agar for fungi. The results are shown in the table below comparatively with tallysomycin A and B.

[3] = tested on: Aspergillus fumigatus IAM 2593; experiment: MIC, two-fold agar dilution method; assay type: cell-based; conditions: Sabouraud agar
Procedure: as §1

Escherichia coli NIHJ = experiment: MIC, two-fold agar dilution method; assay type: cell-based; conditions: nutrient agar
Procedure: as §1

[4] = tested on: Staphylococcus aureus Smith; experiment: MIC, two-fold agar dilution method; assay type: cell-based; conditions: nutrient agar
Procedure: as §1

Sarcina lutea PCI1001 = experiment: MIC, two-fold agar dilution method; assay type: cell-based; conditions: nutrient agar
Procedure: as §1

Proteus mirabilis A9554 = experiment: MIC, two-fold agar dilution method; assay type: cell-based; conditions: nutrient agar
Procedure: as §1

[5] = tested on: Bacillus subtilis PCI 219; experiment: MIC, two-fold agar dilution method; assay type: cell-based; conditions: nutrient agar
Procedure: as §1

Mycobacterium 607 = experiment: MIC, two-fold agar dilution method; assay type: cell-based; conditions: nutrient agar
Procedure: as §1

Melanotic melanoma B16 = experiment: Antitumor activity in mice, melanotic melanoma B16; assay type: in vivo, BDF1 mice; conditions: copper-chelated form unless otherwise stated; for Antitumor activity B16 (ID50): ip, once daily 9 days, 50% inhibition of tumor growth, day 16, 23040 min; for Antitumor therapeutic index B16: single dose LD50/ID50
Excerpt: (§2) The antitumor activity of the tallysomycin derivatives was examined in four experimental tumor systems in mice. Lymphocytic leukemia P388 and Lewis lung carcinoma were implanted intraperitoneally into BDF1 mice of either sex at an inoculum size of 3×10^5 and 5×10^5 cells per mouse, respectively. Sarcoma 180 ascites tumor was inoculated intraperitoneally into male dd-strain mice with […] per mouse. Melanotic melanoma B16 was implanted subcutaneously into BDF1 mice with 5×10^5 cells per mouse. Twenty-four hours after the implantation of tumor cells, graded doses of test compounds were administered to mice intraperitoneally in an injection volume of 0.2 ml. per 10 grams of body weight. Test compounds were given once daily for 9 days (qd 1→9 schedule) except for the mice inoculated with Lewis lung carcinoma which were treated for 11 days (qd 1→11). Death or survival of the treated and non-treated (control) animals was recorded daily during the observation period of 45 days after the implantation of tumor cells, and the median survival time was calculated for each of the test (T) and control (C) groups. […] The actual dose giving a T/C of 125% was estimated by linear regression analysis and defined as the effective dose 125 or ED125. The effective dose 150 (ED150) was employed for the evaluation of antitumor effect against Sarcoma 180. In the B16 melanoma experiment the tumor size was measured on day 16 after tumor inoculation, and the dose giving 50% inhibition of tumor growth (ID50) was calculated from regression lines.
(§3) The antitumor therapeutic index was calculated for each derivative from the ratio of toxicity and antitumor activity.

[6] = tested on: lysogenic bacterium E. coli W1709 (λ); experiment: Prophage induction of lysogenic bacterium (ILB activity); assay type: cell-based; conditions: t/c ratio of plaque counts greater than 3.0
Procedure: The activity of prophage induction of lysogenic bacterium E. coli W1709 (λ) was determined according to the method disclosed by Lein et al. in Nature 196: 783-784 (1962). The plaque count was made on the agar plate containing test compound (t) and control plate (c). A t/c ratio of the plaque counts of greater than 3.0 was defined to be a significant level and lysogenic induction activity (ILB activity) was expressed by the minimum inducible concentration of the test compound.

Lewis lung carcinoma = experiment: Antitumor activity in mice, Lewis lung carcinoma; assay type: in vivo, BDF1 mice; conditions: copper-chelated form unless otherwise stated; for Antitumor activity Lewis lung (ED125): ip, once daily 11 days, dose giving T/C survival of 125%; for Antitumor therapeutic index Lewis Lung: single dose LD50/ED125
Excerpt: as §2, §3

[7] = tested on: Mycobacterium smegmatis strain M6-3; experiment: Relative antibacterial potency, paper-disc agar diffusion method; assay type: cell-based; conditions: relative to tallysomycin A standard=1000 mcg/mg
Procedure: The relative antibacterial potencies (tallysomycin A standard=1000 mcg/mg) of the tallysomycin derivatives were determined by the paper-disc agar diffusion method using Mycobacterium smegmatis strain M6-3 as the assay organism.

Sarcoma 180 = experiment: animal or person; assay type: in vivo, dd-strain mice; conditions: copper-chelated form unless otherwise stated; for Antitumor activity S180 (ED150): ip, once daily 9 days, effective dose 150, survival; for Antitumor therapeutic index S180: single dose LD50/ED150
Excerpt: as §2, §3

[8] = tested on: Lymphocytic leukemia P388; experiment: animal or person; assay type: in vivo, BDF1 mice; conditions: copper-chelated form unless otherwise stated; for Antitumor activity P388 (ED125): ip, once daily 9 days, dose giving T/C survival of 125%; for Antitumor therapeutic index P388: single dose LD50/ED125
Excerpt: as §2, §3

SMILES	LD50 single dose [1] [mg/kg/day]	minimum inhibitory concentration (MIC) [2]	minimum inhibitory concentration (MIC) [3]	minimum inhibitory concentration (MIC) (Escherichia coli NIHJ)	minimum inhibitory concentration (MIC) [4]	minimum inhibitory concentration (MIC) (Sarcina lutea PCI1001)	minimum inhibitory concentration (MIC) (Proteus mirabilis A9554)	minimum inhibitory concentration (MIC) [5]	minimum inhibitory concentration (MIC) (Mycobacterium 607)	Antitumor activity B16 (ID50) (Melanotic melanoma B16) [mg/kg/day]	Antitumor therapeutic index B16 (Melanotic melanoma B16)	ILB activity (minimum inducible concentration) [6] [µg/mL]	Antitumor activity Lewis lung (ED125) (Lewis lung carcinoma) [mg/kg/day]	Antitumor therapeutic index Lewis Lung (Lewis lung carcinoma)	Antibacterial potency [7]	Antitumor activity S180 (ED150) (Sarcoma 180) [mg/kg/day]	Antitumor therapeutic index S180 (Sarcoma 180)	Antitumor activity P388 (ED125) [8] [mg/kg/day]	Antitumor therapeutic index P388 [8]
Cc1c(N)nc(C(CC(N)=O)NCC(N)C(N)=O)nc1C(=O)NC(C(=O)NC(C)C(O)CC(=O)NC(C(=O)NC(OC1OC(C)C(N)C(O)C1O)C(O)c1nc(-c2nc(C(=O)NCCCC(N)CC(=O)NCCC[S+](C)C)cs2)cs1)C(C)O)C(OC1OC(CO)C(O)C(O)C1OC1OC(CO)C(O)C(OC(N)=O)C1O)c1c[nH]cn1 (stereo not shown) [Tallysomycin S2a]	25	6.3	0.4	< 0.05	0.2	0.8	0.2	< 0.05	< 0.05	0.17	147	0.31	0.14	179	350 μ/mg	0.07	357	> 3.0	< 8
Cc1c(N)nc(C(CC(N)=O)NCC(N)C(N)=O)nc1C(=O)NC(C(=O)NC(C)C(O)CC(=O)NC(C(=O)NC(OC1OC(C)C(N)C(O)C1O)C(O)c1nc(-c2nc(C(=O)NCCCC(N)CC(=O)NCCCNCCO)cs2)cs1)C(C)O)C(OC1OC(CO)C(O)C(O)C1OC1OC(CO)C(O)C(OC(N)=O)C1O)c1c[nH]cn1 (stereo not shown) [Tallysomycin S6a]	15	6.3	0.2	0.4	0.8	1.6	1.6	0.03	0.4	0.12	125	0.02	0.47	32	460 μ/mg	0.09	167	0.70	21
Cc1c(N)nc(C(CC(N)=O)NCC(N)C(N)=O)nc1C(=O)NC(C(=O)NC(C)C(O)CC(=O)NC(C(=O)NC(OC1OC(C)C(N)C(O)C1O)C(O)c1nc(-c2nc(C(=O)NCCCN(C)C)cs2)cs1)C(C)O)C(OC1OC(CO)C(O)C(O)C1OC1OC(CO)C(O)C(OC(N)=O)C1O)c1c[nH]cn1 (stereo not shown) [Tallysomycin S7b]	30	> 50	0.4	0.4	6.3	12.5	6.3	0.1	3.1	0.16	188	0.08	–	–	380 μ/mg	0.14	214	2.1	14
Cc1c(N)nc(C(CC(N)=O)NCC(N)C(N)=O)nc1C(=O)NC(C(=O)NC(C)C(O)CC(=O)NC(C(=O)NC(OC1OC(C)C(N)C(O)C1O)C(O)c1nc(-c2nc(C(=O)NCCCN3CCCCC3C)cs2)cs1)C(C)O)C(OC1OC(CO)C(O)C(O)C1OC1OC(CO)C(O)C(OC(N)=O)C1O)c1c[nH]cn1 (stereo not shown) [Tallysomycin S13b]	35	> 100	12.5	0.4	6.3	6.3	12.5	0.8	0.2	0.23	152	0.08	–	–	1,090 μ/mg	0.33	106	0.70	50
Cc1c(N)nc(C(CC(N)=O)NCC(N)C(N)=O)nc1C(=O)NC(C(=O)NC(C)C(O)CC(=O)NC(C(=O)NC(OC1OC(C)C(N)C(O)C1O)C(O)c1nc(-c2nc(C(=O)NCCCC(N)CC(=O)NCCCCN)cs2)cs1)C(C)O)C(OC1OC(CO)C(O)C(O)C1OC1OC(CO)C(O)C(OC(N)=O)C1O)c1c[nH]cn1 (stereo not shown) [Tallysomycin S10a]	27	3.1	1.6	0.4	1.6	0.4	0.8	0.04	0.2	0.39	69	0.16	–	–	1,450 μ/mg	0.08	338	0.28	96
Cc1c(N)nc(C(CC(N)=O)NCC(N)C(N)=O)nc1C(=O)NC(C(=O)NC(C)C(O)CC(=O)NC(C(=O)NC(OC1OC(C)C(N)C(O)C1O)C(O)c1nc(-c2nc(C(=O)NCCCC(N)CC(=O)NCCCN)cs2)cs1)C(C)O)C(OC1OC(CO)C(O)C(O)C1OC1OC(CO)C(O)C(OC(N)=O)C1O)c1c[nH]cn1 (stereo not shown) [Tallysomycin S1a]	25	3.1	0.8	0.1	0.4	0.1	0.4	< 0.003	0.012	0.84	30	0.16	–	–	1,075 μ/mg	0.07	357	1.2	21
